pIC50: −log10 of the molar value.
Target: BTK (Homo sapiens (Human), UniProt Q06187)
Assay: biochemical

BTK, sequence (Q06187 whole entry, looked up, species assumed): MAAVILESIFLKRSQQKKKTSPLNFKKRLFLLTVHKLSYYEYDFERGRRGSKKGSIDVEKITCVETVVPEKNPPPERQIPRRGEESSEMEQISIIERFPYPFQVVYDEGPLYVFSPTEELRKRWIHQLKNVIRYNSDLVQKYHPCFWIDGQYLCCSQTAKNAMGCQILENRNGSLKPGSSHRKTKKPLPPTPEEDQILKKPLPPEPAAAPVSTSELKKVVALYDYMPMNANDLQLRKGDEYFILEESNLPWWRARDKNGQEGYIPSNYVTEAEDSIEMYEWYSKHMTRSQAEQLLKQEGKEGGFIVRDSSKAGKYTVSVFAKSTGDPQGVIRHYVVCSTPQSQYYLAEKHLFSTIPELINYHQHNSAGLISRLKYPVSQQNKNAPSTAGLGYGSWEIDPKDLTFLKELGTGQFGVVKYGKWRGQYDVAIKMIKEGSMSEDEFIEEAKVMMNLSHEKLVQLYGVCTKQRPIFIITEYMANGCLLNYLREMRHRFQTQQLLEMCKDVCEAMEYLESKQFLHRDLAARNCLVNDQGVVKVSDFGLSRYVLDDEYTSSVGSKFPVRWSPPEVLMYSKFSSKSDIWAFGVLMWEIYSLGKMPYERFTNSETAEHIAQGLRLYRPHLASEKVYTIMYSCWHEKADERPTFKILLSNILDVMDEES

SMILES | pIC50
CC#CC(=O)N1CCCC[C@H]1c1nc(-c2ccc(C(=O)Nc3ccccn3)cc2)c2c(C)ncc(C)n12 [Example 189, (S)-4-(3-(1-(but-2-ynoyl)piperidin-2-yl)-5,8-dimethylimidazo[1,5-a]pyrazin-1-yl)-N-(pyridin-2-yl)benzamide] | 6.00 to 7.00
C=CC(=O)N1CCC[C@H]1c1nc(-c2ccc(Oc3cccc(C)c3C)cc2)c2cnccn12 [Example 12, (S)-1-(2-(1-(4-(2,3-dimethylphenoxy)phenyl)imidazo[1,5-a]pyrazin-3-yl)pyrrolidin-1-yl)prop-2-en-1-one] | 7.00 to 8.00
C=CC(=O)N1CC[C@@H](c2nc(-c3ccc(Oc4cccc(OC)c4F)cc3)c3c(CCC)nccn23)C1 [Example 109, (R)-1-(3-(1-(4-(2-fluoro-3-methoxyphenoxy)phenyl)-8-propylimidazo[1,5-a]pyrazin-3-yl)pyrrolidin-1-yl)prop-2-en-1-one] | 6.00 to 7.00
CC#CC(=O)N1CCC[C@@H](c2nc(-c3ccc(Oc4cccc(OC)c4F)cc3)c3c(C)ncc(C)n23)C1 [Example 77, (R)-1-(3-(1-(4-(2-fluoro-3-methoxyphenoxy)phenyl)-5,8-dimethylimidazo[1,5-a]pyrazin-3-yl)piperidin-1-yl)but-2-yn-1-one] | 6.00 to 7.00
COc1cccc(Oc2ccc(-c3nc([C@@H]4CCCN4Cc4ccccc4)n4ccncc34)cc2)c1F [Example 32, (S)-3-(1-benzylpyrrolidin-2-yl)-1-(4-(2-fluoro-3-methoxyphenoxy)phenyl)imidazo[1,5-a]pyrazine] | 5.00 to 6.00
C=CC(=O)N1CCC[C@@H](c2nc(-c3ccc(Oc4cccc(OC)c4F)cc3)c3cncc(C)n23)C1 [Example 70, (R)-1-(3-(1-(4-(2-fluoro-3-methoxyphenoxy)phenyl)-5-methylimidazo[1,5-a]pyrazin-3-yl)piperidin-1-yl)prop-2-en-1-one] | 7.00 to 8.00
CC#CC(=O)N1CC[C@@H](c2nc(-c3ccc(C(=O)Nc4ccccn4)cc3)c3cncc(OCC)n23)C1 [Example 193, (R)-4-(3-(1-(but-2-ynoyl)pyrrolidin-3-yl)-5-ethoxyimidazo[1,5-a]pyrazin-1-yl)-N-(pyridin-2-yl)benzamide] | 6.00 to 7.00
C=CC(=O)N1CCC[C@H]1c1nc(-c2ccc(Oc3ccccc3)c(Cl)c2)c2cnccn12 [Example 26, (S)-1-(2-(1-(3-chloro-4-phenoxyphenyl)imidazo[1,5-a]pyrazin-3-yl)pyrrolidin-1-yl)prop-2-en-1-one] | 7.00 to 8.00
C=CC(=O)N1CCC[C@H]1c1nc(-c2ccc(Oc3ccccc3)nc2)c2cnccn12 [Example 4, (S)-1-(2-(1-(6-Phenoxypyridin-3-yl)imidazo[1,5-a]pyrazin-3-yl)pyrrolidin-1-yl)prop-2-en-1-one] | 6.00 to 7.00
C=CC(=O)N1CCCC[C@H]1c1nc(-c2ccc(COc3ccc(F)c(F)c3)cc2)c2cnccn12 [Example 148, (S)-1-(2-(1-(4-((3,4-difluorophenoxy)methyl)phenyl)imidazo[1,5-a]pyrazin-3-yl)piperidin-1-yl)prop-2-en-1-one] | 6.00 to 7.00
C=CC(=O)N1CCC[C@H]1c1nc(-c2ccc(Oc3cccc(OC)c3F)cc2)c2cnc(C)cn12 [Example 83, (S)-1-(2-(1-(4-(2-fluoro-3-methoxyphenoxy)phenyl)-6-methylimidazo[1,5-a]pyrazin-3-yl)pyrrolidin-1-yl)prop-2-en-1-one] | 7.00 to 8.00
C=CC(=O)N1CCC[C@H]1c1nc(-c2ccc(Oc3cccc(C)c3)cc2)c2cnccn12 [Example 10, (S)-1-(2-(1-(4-(m-tolyloxy)phenyl)imidazo[1,5-a]pyrazin-3-yl)pyrrolidin-1-yl)prop-2-en-1-one] | 7.00 to 8.00
C=CC(=O)N1CCCC[C@H]1c1nc(-c2ccc(COc3cccc(F)c3)cc2)c2c(C)nccn12 [Example 156, (S)-1-(2-(1-(4-((3-fluorophenoxy)methyl)phenyl)-8-methylimidazo[1,5-a]pyrazin-3-yl)piperidin-1-yl)prop-2-en-1-one] | 7.00 to 8.00

From patent US10933063B2 (priority 2017, dated 2021)
